Measured values: patent US20120128860A1, “PREPARATION OF VEGETABLE MATERIAL AND FOOD PRODUCTS” (priority 2009, published 2012)

Test system: tobacco plants (Nicotiana tabacum)
Experiment: Chlorophyll a and b content of tobacco leaves after pre-harvest kinetin treatment, soaking and storage
Type: in vivo
Parameters: reduction after 27 d (chlorophyll): concentration or dose not given beside the values
Conditions: cytokinin 5 days pre-harvest; for reduction after 27 d (chlorophyll): 27 d storage; for chlorophyll level after 0 d storage / chlorophyll level after 3 d storage / chlorophyll level after 7 d storage / chlorophyll level after 10 d storage / chlorophyll level after 14 d storage / chlorophyll level after 20 d storage / chlorophyll level after 27 d storage: stored 4° C. dark
Protocol: Determination of chlorophyll contents of fresh leaves using a spectrophotometer. Procedure: • 1. Homogenisation of plant tissue (100 mg) in liquid nitrogen. For each data point at least three biological samples were harvested. • 2. Addition of 400 microliter acetone in 10 micromolar KOH and subsequent vortexing • 3. Centrifugation of the homogenate at 13,000 rpm for 10 min to remove cell debris and proteins • 4. Transfer of the supernatant into new test tubes • 5. Addition 200 microliter of extraction mixture to the pellet as mentioned above and vortexing • 6. Centrifugation of the homogenate at 13,000 rpm for 10 min • 7. Mix of the supernatant with the supernatant from step 4 • 8. Repeat of steps 5-7 three times until the pellet is completely white • 9. Dilution of the sample 1:10 in acetone and measurement of absorption at 664, 646/7 and 750 nm in a spectrophotometer. All absorbance measurements at the indicated wavelength need subtraction of the absorbance at 750 nm. Calculation of the chlorophyll contents by comparing with calibration curves.
Determination of chlorophyll contents of leaves by HPLC. Procedure: • 1. Homogenisation of 100 mg plant material in liquid nitrogen in a test tube • 2. Addition of 500 microliter acetone with 10 micromolar KOH and vortexing. • 3. Centrifugation of the suspension for 10 min at 4° C. at 13.000 rpm. • 4. The supernatant is transferred into new test tube • 5. Addition of 500 microliter acetone to the pellet and resuspension of the pellet • 6. Centrifugation for 10 min at 4° C. at 13.000 rpm. • 7. The supernatant is combined with the supernatant from step 4 • 8. The samples are vortexed and centrifuged for 10 min at 4° C. at 13,000 rpm. • 9. A 40 microliter aliquot of the extract is mixed with 160 microliter water • 10. The sample is transferred into a HPLC vial • 11. An aliquot of 10-100 microliter is injected into the HPLC column (RP C18 column) • 12. Running buffers: Acetonitril/H2O/triethylamine (1798:200:2) and ethyl acetate
Objective of the experiments: to combine effects of pre-harvest treatment of tobacco plants with the growth hormone kinetin and subsequently soaking with a buffer solution on the stability of chlorophyll after heat treatment followed by different storage periods.
A 1 mM kinetin solution in water was made by dissolving kinetin dropwise with 10 microliter 1M NaOH, then the solution was neutralized to pH 7.0 with HCl. This 1 mM kinetin aqueous solution was injected into the leaves of growing tobacco plants (Nicotiana tabacum). The application of cytokinin was repeated once a day for five successive days. At day 7, tobacco leaves were harvested and stored in aluminium foils. Control plants were treated with the same solution at pH 7.0 (in water), but without kinetin.
After harvest, leaves of the harvested plants (both treated with cytokinin, as well as the control plants) were separated in batches, which were subsequently treated at different temperatures in one the following ways: • 1. leaves were soaked in tap water during 1 minute at room temperature; • 2. leaves were soaked in a buffer solution of pH 7.2 during 1 minute at room temperature; • 3. leaves were soaked in tap water during 1 minute at 70° C.; • 4. leaves were soaked in a buffer solution of pH 7.2 during 1 minute at 70° C.; • 5. leaves were soaked in tap water during 1 minute at 90° C.; • 6. leaves were soaked in a buffer solution of pH 7.2 during 1 minute at 90° C.;
Immediately after each of these steps, the soaked leaves were cooled shortly in a cold tap water bath at 3° C.
The aqueous buffer solution contained 137 mM NaCl, 2.7 mM KCL, 10 mM Na2HPO4 and 2 mM KH2PO4, and was adjusted to pH 7.2 with more hydrogen phosphate or dihydrogenphosphate if required.
Finally the chlorophyll content of the leaves was quantified after storage in tissue papers at 4° C. in the dark at various moments in time. […]

[1] = soaked 1 min in buffer pH 7.2 at 70° C.
[2] = soaked 1 min in buffer pH 7.2 at 90° C.
[3] = soaked 1 min in buffer pH 7.2 at room temperature
[4] = soaked 1 min in water at 70° C.
[5] = soaked 1 min in water at 90° C.
[6] = soaked 1 min in water at room temperature

c1coc(CNc2ncnc3[nH]cnc23)c1 [cytokinin, 6-furfurylaminopurine]
reduction after 27 d (chlorophyll) [1]: 11% | chlorophyll level after 0 d storage [1]: 18 micromole per gram fresh weight | chlorophyll level after 3 d storage [1]: 17.5 micromole per gram fresh weight | chlorophyll level after 7 d storage [1]: 17.2 micromole per gram fresh weight | chlorophyll level after 10 d storage [1]: 17 micromole per gram fresh weight | chlorophyll level after 14 d storage [1]: 17 micromole per gram fresh weight | chlorophyll level after 20 d storage [1]: 16.8 micromole per gram fresh weight | chlorophyll level after 27 d storage [1]: 16 micromole per gram fresh weight | chlorophyll level after 0 d storage [2]: 18 micromole per gram fresh weight | chlorophyll level after 3 d storage [2]: 17.5 micromole per gram fresh weight | chlorophyll level after 7 d storage [2]: 17 micromole per gram fresh weight | chlorophyll level after 10 d storage [2]: 16.5 micromole per gram fresh weight | chlorophyll level after 14 d storage [2]: 16 micromole per gram fresh weight | chlorophyll level after 20 d storage [2]: 15.5 micromole per gram fresh weight | chlorophyll level after 27 d storage [2]: 15 micromole per gram fresh weight | reduction after 27 d (chlorophyll) [3]: 17% | chlorophyll level after 0 d storage [3]: 18.5 micromole per gram fresh weight | chlorophyll level after 3 d storage [3]: 17.5 micromole per gram fresh weight | chlorophyll level after 7 d storage [3]: 16.5 micromole per gram fresh weight | chlorophyll level after 10 d storage [3]: 15.5 micromole per gram fresh weight | chlorophyll level after 14 d storage [3]: 16 micromole per gram fresh weight | chlorophyll level after 20 d storage [3]: 15.5 micromole per gram fresh weight | chlorophyll level after 27 d storage [3]: 15 micromole per gram fresh weight | chlorophyll level after 0 d storage [4]: 17.5 micromole per gram fresh weight | chlorophyll level after 3 d storage [4]: 17 micromole per gram fresh weight | chlorophyll level after 7 d storage [4]: 16.5 micromole per gram fresh weight | chlorophyll level after 10 d storage [4]: 16.5 micromole per gram fresh weight | chlorophyll level after 14 d storage [4]: 16 micromole per gram fresh weight | chlorophyll level after 20 d storage [4]: 16 micromole per gram fresh weight | chlorophyll level after 27 d storage [4]: 15.5 micromole per gram fresh weight | reduction after 27 d (chlorophyll) [5]: 50% | chlorophyll level after 0 d storage [5]: 15 micromole per gram fresh weight | chlorophyll level after 3 d storage [5]: 13.5 micromole per gram fresh weight | chlorophyll level after 7 d storage [5]: 12.5 micromole per gram fresh weight | chlorophyll level after 10 d storage [5]: 11 micromole per gram fresh weight | chlorophyll level after 14 d storage [5]: 9.8 micromole per gram fresh weight | chlorophyll level after 20 d storage [5]: 8.8 micromole per gram fresh weight | chlorophyll level after 27 d storage [5]: 7.5 micromole per gram fresh weight | reduction after 27 d (chlorophyll) [6]: 9% | chlorophyll level after 0 d storage [6]: 18 micromole per gram fresh weight | chlorophyll level after 3 d storage [6]: 17.8 micromole per gram fresh weight | chlorophyll level after 7 d storage [6]: 17.2 micromole per gram fresh weight | chlorophyll level after 10 d storage [6]: 16.5 micromole per gram fresh weight | chlorophyll level after 14 d storage [6]: 16.2 micromole per gram fresh weight | chlorophyll level after 20 d storage [6]: 16 micromole per gram fresh weight | chlorophyll level after 27 d storage [6]: 16 micromole per gram fresh weight
